This is an account of results in US10913711B2, “Potent and selective inhibitors of monoamine transporters; method of making; and use thereof” (priority 2013, dated 2021).

Structures are written as SMILES.

Chain of human DAT A480T mutant (Q01959 whole entry A480T): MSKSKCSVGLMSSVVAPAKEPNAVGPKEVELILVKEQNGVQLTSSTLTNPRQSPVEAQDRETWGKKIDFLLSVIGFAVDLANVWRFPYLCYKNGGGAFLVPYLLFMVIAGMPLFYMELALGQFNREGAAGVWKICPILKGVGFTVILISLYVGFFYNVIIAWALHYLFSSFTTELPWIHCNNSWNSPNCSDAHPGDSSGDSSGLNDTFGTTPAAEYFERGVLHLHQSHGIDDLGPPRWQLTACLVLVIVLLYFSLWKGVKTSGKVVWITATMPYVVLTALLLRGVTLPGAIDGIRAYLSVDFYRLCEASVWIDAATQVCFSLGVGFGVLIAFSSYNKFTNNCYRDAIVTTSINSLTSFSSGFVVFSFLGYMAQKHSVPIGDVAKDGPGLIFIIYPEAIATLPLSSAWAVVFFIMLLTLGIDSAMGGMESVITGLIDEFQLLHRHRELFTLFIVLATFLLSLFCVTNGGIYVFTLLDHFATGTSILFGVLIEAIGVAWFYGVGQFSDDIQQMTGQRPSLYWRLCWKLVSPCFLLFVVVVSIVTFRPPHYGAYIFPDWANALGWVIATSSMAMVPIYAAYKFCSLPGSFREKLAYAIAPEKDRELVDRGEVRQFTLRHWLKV

In the first assay the target is NET (Rattus norvegicus (Rat), UniProt Q9WTR4). The assay is described as follows: Norepinephrine Transporter Binding Assay ([3H]Nisoxetine, rat frontal cortex membranes).
Chain of NET (Q9WTR4 entry or part of it): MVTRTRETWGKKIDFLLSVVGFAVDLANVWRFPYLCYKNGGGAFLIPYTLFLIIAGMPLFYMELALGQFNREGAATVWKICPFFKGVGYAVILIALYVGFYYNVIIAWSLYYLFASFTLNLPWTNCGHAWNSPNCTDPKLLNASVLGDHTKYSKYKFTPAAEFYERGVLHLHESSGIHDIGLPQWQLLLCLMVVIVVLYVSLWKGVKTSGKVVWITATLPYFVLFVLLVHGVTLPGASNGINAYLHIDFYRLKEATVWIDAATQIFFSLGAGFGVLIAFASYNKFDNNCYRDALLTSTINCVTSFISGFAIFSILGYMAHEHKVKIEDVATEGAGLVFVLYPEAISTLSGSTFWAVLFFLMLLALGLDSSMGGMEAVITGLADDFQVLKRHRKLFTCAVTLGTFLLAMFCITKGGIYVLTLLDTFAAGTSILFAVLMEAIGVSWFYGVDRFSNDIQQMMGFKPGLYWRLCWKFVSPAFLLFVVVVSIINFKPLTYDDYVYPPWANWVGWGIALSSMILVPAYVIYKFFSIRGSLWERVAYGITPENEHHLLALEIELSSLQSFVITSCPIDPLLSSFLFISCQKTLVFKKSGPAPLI
Conditions: not given
How it is done:
Binding affinities of all compounds were evaluated at the DAT, SERT, and NET in rat brain membranes using previously described methods:
Norepinephrine Transporter Binding Assay. Brains from male Sprague-Dawley rats weighing 200-225 g (Taconic Labs, Germantown, N.Y.) were removed, frontal cortex dissected and rapidly frozen. Membranes were prepared by homogenizing tissues in 20 volumes (w/v) of 50 mM Tris containing 120 mM NaCl and 5 mM KCl, (pH 7.4 at 25° C.), using a Brinkman Polytron and centrifuged at 50,000×g for 10 min at 4° C. The resulting pellet was resuspended in buffer, recentrifuged and resuspended in buffer to a concentration of 80 mg/mL. Ligand binding experiments were conducted in assay tubes containing 0.5 mL buffer for 60 min at 0-4° C. […] Nonspecific binding was determined using 1 mM desipramine. Incubations were terminated by rapid filtration through Whatman GF/B filters, presoaked in 0.05% polyethylenimine, using a Brandel R48 filtering manifold (Brandel Instruments Gaithersburg, Md.). The filters were washed twice with 3 mL cold buffer and transferred to scintillation vials. Beckman Ready Value (3.0 mL) was added and the vials were counted using a Beckman 6000 liquid scintillation counter (Beckman Coulter Instruments, Fullerton, Calif.). […] All compounds were tested as racemic mixtures.
`O=C(CSC(c1ccccc1)c1ccccc1)NCC1CC1` [Compound 2o, 2-(Benzhydrylthio)-N-(cyclopropylmethyl)acetamide]: the Ki is above 100 µM.

Compound `O=C(CSC(c1ccc(Br)cc1)c1ccc(Br)cc1)NCCCCc1ccccc1` [Compound 2z, 2-((Bis(4-bromophenyl)methyl)thio)-N-(4-phenylbutyl)acetamide] gave a Ki above 100 µM.

Consider `NC(=O)C[S+]([O-])C(c1ccccc1)c1cccc(Br)c1` (centres unmarked) [Compound 3e, 2-(((3-Bromophenyl)(phenyl)methyl)sulfinyl)acetamide], for which the Ki is above 100 µM.

With `C=CCNC(=O)CSC(c1ccccc1)c1ccccc1` [Compound 2j, N-Allyl-2-(benzhydrylthio)acetamide], the Ki is above 230 µM.

For `CCCCNCCSC(c1ccccc1)c1ccccc1` [Compound 4e, N-(2-(benzhydrylthio)ethyl)butan-1-amine], the affinity corresponds to a Ki of 11.5 µM.

For the compound `[O-][S+](CCN1CCN(CC(O)Cc2ccccc2)CC1)C(c1ccccc1)c1ccccc1` (racemic) [Compound 10g, 1-(4-(2-(Benzhydrylsulfinyl)ethyl)piperazin-1-yl)-3-phenylpropan-2-ol], the Ki was found to be 25.3 ± 2.04 µM.

Take `CCCNC(=O)CSC(c1ccc(Br)cc1)c1ccc(Br)cc1` [Compound 2n, 2-((Bis(4-bromophenyl)methyl)thio)-N-propylacetamide]: affinity was put at a Ki of 10.6 µM.

In turn, `[O-][S+](CCN1CCN(CCCc2ccccc2)CC1)C(c1ccc(F)cc1)c1ccc(F)cc1` (centres unmarked) [Compound 8b, 1-(2-((Bis(4-fluorophenyl)methyl)sulfinyl)ethyl)-4-(3-phenylpropyl)piperazine] returned a Ki of 4.28 ± 0.343 µM.

Compound `CNC(=O)C[S+]([O-])C(c1ccccc1)c1ccccc1` (centres unmarked) [Compound 3f, 2-(Benzhydrylsulfinyl)-N-methylacetamide] had a Ki above 100 µM.

Regarding `c1ccc(CCCNCCSC(c2ccccc2)c2ccccc2)cc1` [Compound 4f, N-(2-(benzhydrylthio)ethyl)-3-phenylpropan-1-amine], the Ki was 3.91 µM.

`O=C(CSC(c1ccc(Br)cc1)c1ccc(Br)cc1)NCC1CC1` [Compound 2q, 2-((Bis(4-bromophenyl)methyl)thio)-N-(cyclopropylmethyl)acetamide] had a Ki above 100 µM.

In turn, `Cc1ccc(C(c2ccc(C)cc2)[S+]([O-])CC(N)=O)cc1` (centres unmarked) [Compound 3a, 2-((Di-p-tolylmethyl)sulfinyl)acetamide] displayed a Ki above 100 µM.

`O=C(CSC(c1ccc(Br)cc1)c1ccc(Br)cc1)NCCCc1ccccc1` [Compound 2x, 2-((Bis(4-bromophenyl)methyl)thio)-N-(3-phenylpropyl)acetamide] yielded a Ki of 36.3 µM.

`CNC(=O)CSC(c1ccccc1)c1ccccc1` [Compound 2g, 2-(Benzhydrylthio)-N-methylacetamide] showed a Ki of 27.3 µM.

The compound `OC(Cc1ccccc1)CN1CCN(CCSC(c2ccc(F)cc2)c2ccc(F)cc2)CC1` (racemic) [Compound 9j, 1-(4-(2-((Bis(4-fluorophenyl)methyl)thio)ethyl)piperazin-1-yl)-3-phenylpropan-2-ol] gave a Ki of 1.95 ± 0.227 µM.

The compound `CC(O)CN1CCN(CC[S+]([O-])C(c2ccccc2)c2ccccc2)CC1` (racemic) [Compound 10a, 1-(4-(2-(Benzhydrylsulfinyl)ethyl)piperazin-1-yl)propan-2-ol] returned a Ki above 100 µM.

The compound `CCCNC(=O)CSC(c1ccc(F)cc1)c1ccc(F)cc1` [Compound 2l, 2-((Bis(4-fluorophenyl)methyl)thio)-N-propylacetamide] had an inhibition constant (Ki) of 61.7 µM.

Compound `O=C(CSC(c1ccc(F)cc1)c1ccc(F)cc1)NCC1CC1` [Compound 2p, 2-((Bis(4-fluorophenyl)methyl)thio)-N-(cyclopropylmethyl)acetamide] displayed a Ki of 57.6 µM.

In turn, `O=C(C[S+]([O-])C(c1ccc(Br)cc1)c1ccc(Br)cc1)NCCCc1ccccc1` (centres unmarked) [Compound 3g, 2-(Bis(4-bromophenyl)methylsulfinyl)-N-(3-phenylpropyl)acetamide] returned a Ki above 100 µM.

In turn, `[O-][S+](CCN1CCN(CCCc2ccccc2)CC1)C(c1ccccc1)c1ccccc1` (centres unmarked) [Compound 8a, 1-(2-(Benzhydrylsulfinyl)ethyl)-4-(3-phenylpropyl)piperazine] yielded a Ki of 5.54 ± 0.808 µM.

Consider `[O-][S+](CCNCCCc1ccccc1)C(c1ccc(F)cc1)c1ccc(F)cc1` (centres unmarked) [Compound 5c, N-(2-((bis(4-fluorophenyl)methyl)sulfinyl)ethyl)-3-phenylpropan-1-amine], for which the inhibition constant Ki was 3.28 µM.

For `NC(=O)CSC(c1cccc(Cl)c1)c1cccc(Cl)c1` [Compound 2e, 2-((Bis(3-chlorophenyl)methyl)thio)acetamide], the Ki came to 34 µM.

Consider `CCCNC(=O)CSC(c1ccccc1)c1ccccc1` [Compound 2k, 2-(Benzhydrylthio)-N-propylacetamide], for which the Ki is 55.9 µM.

In turn, `NC(=O)C[S+]([O-])C(c1cccc(Cl)c1)c1cccc(Cl)c1` (centres unmarked) [Compound 3d, 2-((Bis(3-chlorophenyl)methyl)sulfinyl)acetamide] returned a Ki above 100 µM.

`CCCCNC(=O)CSC(c1ccccc1)c1ccccc1` [Compound 2r, 2-(Benzhydrylthio)-N-butylacetamide] displayed an inhibition constant Ki above 0.1 µM.

Turning to `Fc1ccc(C(SCCN2CCN(CCCc3ccccc3)CC2)c2ccc(F)cc2)cc1` [Compound 7b, 1-(2-((Bis(4-fluorophenyl)methyl)thio)ethyl)-4-(3-phenylpropyl)piperazine], the inhibitory constant (Ki) worked out at 1.89 ± 0.116 µM.

As to `CCCCNCC[S+]([O-])C(c1ccccc1)c1ccccc1` (centres unmarked) [Compound 5b, N-(2-(benzhydrylsulfinyl)ethyl)butan-1-amine], the Ki was above 140 µM.

`O=C(CSC(c1ccc(F)cc1)c1ccc(F)cc1)NCCCc1ccccc1` [Compound 2v, 2-((Bis(4-fluorophenyl)methyl)thio)-N-(3-phenylpropyl)acetamide] gave a Ki above 100 µM.

Compound `OC(Cc1ccccc1)CN1CCN(CCSC(c2ccccc2)c2ccccc2)CC1` (racemic) [Compound 9g, 1-(4-(2-(Benzhydrylthio)ethyl)piperazin-1-yl)-3-phenylpropan-2-ol] yielded a Ki of 1.43 ± 0.118 µM.

`[O-][S+](CCNCCCc1ccccc1)C(c1ccc(Cl)cc1)c1ccc(Cl)cc1` (centres unmarked) [Compound 5d, N-(2-((bis(4-chlorophenyl)methyl)sulfinyl)ethyl)-3-phenylpropan-1-amine] displayed a Ki of 5.8 µM.

As to `CC(O)CN1CCN(CCSC(c2ccccc2)c2ccccc2)CC1` (racemic) [Compound 9a, 1-(4-(2-(Benzhydrylthio)ethyl)piperazin-1-yl)propan-2-ol], the Ki was found to be 44.5 ± 2.4 µM.

`NC(=O)C[S+]([O-])C(c1cccc(F)c1)c1cccc(F)c1` (centres unmarked) [Compound 3c, 2-((Bis(3-fluorophenyl)methyl)sulfinyl)acetamide] showed an inhibition constant (Ki) above 100 µM.

In turn, `CC(O)CN1CCN(CC[S+]([O-])C(c2ccc(F)cc2)c2ccc(F)cc2)CC1` (racemic) [Compound 10d, 1-(4-(2-((Bis(4-fluorophenyl)methyl)sulfinyl)ethyl)piperazin-1-yl)propan-2-ol] displayed a Ki above 100 µM.

Turning to `NC(=O)CSC(c1ccccc1)c1ccccc1` [Compound 2a, 2-(Benzhydrylthio)acetamide], the Ki was above 100 µM.

Still in this assay, the particulars now being: Table 1, thioacetamide and sulfinylacetamide analogs; rat brain membranes; racemic mixtures.
Take `O=C(CSC(c1ccc(Br)cc1)c1ccc(Br)cc1)NCCCCc1ccccc1` [Compound 2z, 2-((Bis(4-bromophenyl)methyl)thio)-N-(4-phenylbutyl)acetamide]: the “NET Ki (nM) ± S.E.M.” value is recorded as “no displacement”.

The same assay, now with this note: Table 5, piperazinyl derivatives; rat brain membranes; read-out: NET Ki ± SEM.
In the case of `c1ccc(CCCN2CCN(CCSC(c3ccccc3)c3ccccc3)CC2)cc1` [Compound 7a, 1-(2-(Benzhydrylthio)ethyl)-4-(3-phenylpropyl)piperazine], the Ki amounted to 0.988 ± 0.0228 µM.

A further assay has as its target human DAT A480T mutant (Homo sapiens (Human), UniProt Q01959, A480T). In words: [3H]DA uptake inhibition in intact COS7 cells, hDAT A480T. Conditions: read-out: hDAT A480T Ki [S.E. interval], [3H]DA uptake inhibition potency.
For the compound `CNC(=O)CSC(c1ccccc1)c1ccccc1` [Compound 2g, 2-(Benzhydrylthio)-N-methylacetamide], the Ki is 3.6 µM.

A further assay concerns the target human DAT wild type (Homo sapiens (Human), UniProt Q01959). The assay is described as follows: [3H]DA uptake inhibition in intact COS7 cells, hDAT WT. Type of assay: cell-based. Conditions: [3H]DA uptake inhibition potency, read-out: hDAT WT Ki [S.E. interval].
For `CNC(=O)CSC(c1ccccc1)c1ccccc1` [Compound 2g, 2-(Benzhydrylthio)-N-methylacetamide], the Ki was determined as 5.5 µM.
